Legend:
Assay in all cases: KINATIV assay of compounds I-3 and I-9, lysate directly labeled with ATP-biotin probe (no GF)
Format in all cases: cell-based
kinases in BCWM.1 cells [1] = molecular target: kinases in BCWM.1 cells (Homo sapiens, UniProt P15735); conditions: PHKg2; Lys1; 1 μM, 90 min; no GF
Protocol: (§1) The cells were harvested and lysed. […] Bound kinases were identified and quantitated by ACTIVX as described in Patricelli et al., Biochemistry, 2007, 46(2): 350-358. The compounds were tested in duplicates against duplicate or quadruplicate control samples.

kinases in BCWM.1 cells [2] = molecular target: kinases in BCWM.1 cells (Homo sapiens, UniProt Q16539); conditions: p38a, 1 μM, 90 min, no GF
Protocol: as §1

kinases in BCWM.1 cells [3] = molecular target: kinases in BCWM.1 cells (Homo sapiens, UniProt Q9UBS0); conditions: p70S6Kb; Lys2; 1 μM, 90 min; no GF
Protocol: as §1

kinases in BCWM.1 cells [4] = molecular target: kinases in BCWM.1 cells (Homo sapiens, UniProt O95747); conditions: OSR1; Lys2; 1 μM, 90 min; no GF
Protocol: as §1

kinases in BCWM.1 cells [5] = molecular target: kinases in BCWM.1 cells (Homo sapiens, UniProt O43318); conditions: TAK1; Lys2; 1 μM, 90 min; no GF
Protocol: as §1

kinases in BCWM.1 cells [6] = molecular target: kinases in BCWM.1 cells (Homo sapiens, UniProt Q15418); conditions: Lys2, 1 μM, 90 min, no GF
Protocol: as §1

kinases in BCWM.1 cells [7] = molecular target: kinases in BCWM.1 cells (Homo sapiens, UniProt O00750); conditions: PIK3C2B; ATP; 1 μM, 90 min; no GF
Protocol: as §1

kinases in BCWM.1 cells [8] = molecular target: kinases in BCWM.1 cells (Homo sapiens, UniProt Q9H2G2); conditions: SLK; Lys2; 1 μM, 90 min; no GF
Protocol: as §1

kinases in BCWM.1 cells [9] = molecular target: kinases in BCWM.1 cells (Homo sapiens, UniProt Q9NZJ5); conditions: PEK; Lys2; 1 μM, 90 min; no GF
Protocol: as §1

kinases in BCWM.1 cells [10] = molecular target: kinases in BCWM.1 cells (Homo sapiens, UniProt Q9NRH2); conditions: SNRK; Lys2; 1 μM, 90 min; no GF
Protocol: as §1

kinases in BCWM.1 cells [11] = molecular target: kinases in BCWM.1 cells (Homo sapiens, UniProt P42680); conditions: TEC; Activation Loop; 1 μM, 90 min; no GF
Protocol: as §1

kinases in BCWM.1 cells [12] = molecular target: kinases in BCWM.1 cells (Homo sapiens, UniProt Q9UKE5); conditions: ZC2/TNIK; Lys1; 1 μM, 90 min; no GF
Protocol: as §1

kinases in BCWM.1 cells [13] = molecular target: kinases in BCWM.1 cells (Homo sapiens, UniProt P19525); conditions: PKR; Lys2; 1 μM, 90 min; no GF
Protocol: as §1

kinases in BCWM.1 cells [14] = molecular target: kinases in BCWM.1 cells (Homo sapiens, UniProt P23443); conditions: p70S6K; Lys2; 1 μM, 90 min; no GF
Protocol: as §1

kinases in BCWM.1 cells [15] = molecular target: kinases in BCWM.1 cells (Homo sapiens, UniProt Q86Y07); conditions: VRK2; Lys2; 1 μM, 90 min; no GF
Protocol: as §1

kinases in BCWM.1 cells [16] = molecular target: kinases in BCWM.1 cells (Homo sapiens, UniProt Q96Q15); conditions: SMG1; ATP; 1 μM, 90 min; no GF
Protocol: as §1

kinases in BCWM.1 cells [17] = molecular target: kinases in BCWM.1 cells (Homo sapiens, UniProt P21127); conditions: PITSLRE; Lys2; 1 μM, 90 min; no GF
Protocol: as §1

kinases in BCWM.1 cells [18] = molecular target: kinases in BCWM.1 cells (Homo sapiens, UniProt Q96S38); conditions: RSKL1; ATP; 1 μM, 90 min; no GF
Protocol: as §1

kinases in BCWM.1 cells [19] = molecular target: kinases in BCWM.1 cells (Homo sapiens, UniProt Q9BYT3); conditions: STK33; Lys2; 1 μM, 90 min; no GF
Protocol: as §1

kinases in BCWM.1 cells [20] = molecular target: kinases in BCWM.1 cells (Homo sapiens, UniProt Q8TDX7); conditions: NEK7; Lys1; 1 μM, 90 min; no GF
Protocol: as §1

kinases in BCWM.1 cells [21] = molecular target: kinases in BCWM.1 cells (Homo sapiens, UniProt Q9Y2H1); conditions: NDR2; Lys2; 1 μM, 90 min; no GF
Protocol: as §1

kinases in BCWM.1 cells [22] = molecular target: kinases in BCWM.1 cells (Homo sapiens, UniProt Q8NEB9); conditions: PIK3C3; ATP; 1 μM, 90 min; no GF
Protocol: as §1

kinases in BCWM.1 cells [23] = molecular target: kinases in BCWM.1 cells (Homo sapiens, UniProt P51812); conditions: Lys2, 1 μM, 90 min, no GF
Protocol: as §1

kinases in BCWM.1 cells [24] = molecular target: kinases in BCWM.1 cells (Homo sapiens, UniProt O94921)
Protocol: as §1

kinases in BCWM.1 cells [25] = molecular target: kinases in BCWM.1 cells (Homo sapiens, UniProt Q96PY6); conditions: NEK1; Lys2; 1 μM, 90 min; no GF
Protocol: as §1

kinases in BCWM.1 cells [26] = molecular target: kinases in BCWM.1 cells (Homo sapiens, UniProt Q86SG6); conditions: NEK8; Lys2; 1 μM, 90 min; no GF
Protocol: as §1

kinases in BCWM.1 cells [27] = molecular target: kinases in BCWM.1 cells (Homo sapiens, UniProt Q8TD19); conditions: NEK9; Lys2; 1 μM, 90 min; no GF
Protocol: as §1

kinases in BCWM.1 cells [28] = molecular target: kinases in BCWM.1 cells (Homo sapiens, UniProt P48736); conditions: PIK3CG; ATP; 1 μM, 90 min; no GF
Protocol: as §1

Sequence of kinases in BCWM.1 cells (Homo sapiens, UniProt Q16539) (Q16539 2-360 limits assumed): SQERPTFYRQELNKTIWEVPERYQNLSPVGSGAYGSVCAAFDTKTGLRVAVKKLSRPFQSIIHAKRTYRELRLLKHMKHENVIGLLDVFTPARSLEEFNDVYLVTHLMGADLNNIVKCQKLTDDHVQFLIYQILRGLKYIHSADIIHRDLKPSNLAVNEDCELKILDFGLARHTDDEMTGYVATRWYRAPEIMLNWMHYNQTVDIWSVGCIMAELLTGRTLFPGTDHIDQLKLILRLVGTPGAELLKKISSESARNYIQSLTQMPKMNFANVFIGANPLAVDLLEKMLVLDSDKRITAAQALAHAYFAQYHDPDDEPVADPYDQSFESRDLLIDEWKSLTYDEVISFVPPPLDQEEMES
Sequence of kinases in BCWM.1 cells (Homo sapiens, UniProt P19525) (P19525 2-551 limits assumed): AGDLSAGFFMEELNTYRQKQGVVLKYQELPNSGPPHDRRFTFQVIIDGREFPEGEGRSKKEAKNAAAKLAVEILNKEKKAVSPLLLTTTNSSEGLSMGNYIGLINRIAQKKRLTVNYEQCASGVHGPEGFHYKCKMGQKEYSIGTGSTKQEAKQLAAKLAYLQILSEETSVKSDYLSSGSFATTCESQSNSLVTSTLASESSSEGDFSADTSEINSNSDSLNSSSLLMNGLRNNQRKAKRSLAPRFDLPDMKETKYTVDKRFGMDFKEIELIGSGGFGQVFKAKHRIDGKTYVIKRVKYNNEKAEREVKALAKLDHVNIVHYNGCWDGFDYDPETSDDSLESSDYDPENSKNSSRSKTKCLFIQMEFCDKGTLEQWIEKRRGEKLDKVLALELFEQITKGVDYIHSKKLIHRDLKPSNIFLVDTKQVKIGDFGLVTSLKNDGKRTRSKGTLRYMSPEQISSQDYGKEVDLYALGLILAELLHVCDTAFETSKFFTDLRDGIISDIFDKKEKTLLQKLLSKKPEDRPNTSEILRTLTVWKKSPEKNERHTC
Sequence of kinases in BCWM.1 cells (Homo sapiens, UniProt O95747) (O95747 2-527 limits assumed): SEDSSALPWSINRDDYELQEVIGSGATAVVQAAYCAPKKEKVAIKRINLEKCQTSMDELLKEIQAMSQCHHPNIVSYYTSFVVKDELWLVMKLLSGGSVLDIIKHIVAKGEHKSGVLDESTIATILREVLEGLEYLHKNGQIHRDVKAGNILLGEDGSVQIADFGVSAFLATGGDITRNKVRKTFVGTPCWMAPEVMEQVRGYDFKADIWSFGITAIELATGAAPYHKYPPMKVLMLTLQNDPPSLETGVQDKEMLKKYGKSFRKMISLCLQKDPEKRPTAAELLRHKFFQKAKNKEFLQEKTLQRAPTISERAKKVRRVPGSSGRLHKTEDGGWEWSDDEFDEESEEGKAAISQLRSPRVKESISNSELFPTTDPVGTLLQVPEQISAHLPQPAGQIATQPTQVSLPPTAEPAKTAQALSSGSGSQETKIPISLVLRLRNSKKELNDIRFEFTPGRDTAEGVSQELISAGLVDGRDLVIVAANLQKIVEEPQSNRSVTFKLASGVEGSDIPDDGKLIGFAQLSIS
Sequence of kinases in BCWM.1 cells (Homo sapiens, UniProt Q8TD19) (Q8TD19 2-979 limits assumed): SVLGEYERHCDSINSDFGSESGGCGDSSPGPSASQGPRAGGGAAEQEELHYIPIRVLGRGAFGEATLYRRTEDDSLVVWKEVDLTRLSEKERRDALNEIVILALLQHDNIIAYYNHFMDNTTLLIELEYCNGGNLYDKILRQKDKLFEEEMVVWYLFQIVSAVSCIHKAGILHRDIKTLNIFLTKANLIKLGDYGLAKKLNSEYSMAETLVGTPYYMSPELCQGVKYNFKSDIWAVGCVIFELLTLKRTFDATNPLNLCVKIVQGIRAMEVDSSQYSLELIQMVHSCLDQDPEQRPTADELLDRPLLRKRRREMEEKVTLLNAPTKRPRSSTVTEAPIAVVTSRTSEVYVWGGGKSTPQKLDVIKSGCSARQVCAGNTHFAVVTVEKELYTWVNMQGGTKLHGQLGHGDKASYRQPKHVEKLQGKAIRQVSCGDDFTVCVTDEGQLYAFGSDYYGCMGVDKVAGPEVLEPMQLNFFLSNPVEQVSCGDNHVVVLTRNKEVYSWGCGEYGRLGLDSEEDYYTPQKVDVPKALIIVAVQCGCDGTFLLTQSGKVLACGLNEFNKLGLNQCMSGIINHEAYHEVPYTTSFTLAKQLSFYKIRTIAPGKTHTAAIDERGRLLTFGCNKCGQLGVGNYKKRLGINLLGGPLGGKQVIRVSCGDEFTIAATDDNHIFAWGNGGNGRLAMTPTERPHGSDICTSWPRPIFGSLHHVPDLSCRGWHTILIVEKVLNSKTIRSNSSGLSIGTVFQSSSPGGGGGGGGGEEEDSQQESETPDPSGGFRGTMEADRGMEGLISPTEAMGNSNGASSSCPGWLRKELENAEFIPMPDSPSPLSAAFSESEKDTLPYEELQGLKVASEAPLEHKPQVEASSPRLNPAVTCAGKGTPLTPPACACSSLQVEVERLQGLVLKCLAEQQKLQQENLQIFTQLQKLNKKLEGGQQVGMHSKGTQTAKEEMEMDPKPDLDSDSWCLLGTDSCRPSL
Sequence of kinases in BCWM.1 cells (Homo sapiens, UniProt Q9Y2H1) (Q9Y2H1 2-464 limits assumed): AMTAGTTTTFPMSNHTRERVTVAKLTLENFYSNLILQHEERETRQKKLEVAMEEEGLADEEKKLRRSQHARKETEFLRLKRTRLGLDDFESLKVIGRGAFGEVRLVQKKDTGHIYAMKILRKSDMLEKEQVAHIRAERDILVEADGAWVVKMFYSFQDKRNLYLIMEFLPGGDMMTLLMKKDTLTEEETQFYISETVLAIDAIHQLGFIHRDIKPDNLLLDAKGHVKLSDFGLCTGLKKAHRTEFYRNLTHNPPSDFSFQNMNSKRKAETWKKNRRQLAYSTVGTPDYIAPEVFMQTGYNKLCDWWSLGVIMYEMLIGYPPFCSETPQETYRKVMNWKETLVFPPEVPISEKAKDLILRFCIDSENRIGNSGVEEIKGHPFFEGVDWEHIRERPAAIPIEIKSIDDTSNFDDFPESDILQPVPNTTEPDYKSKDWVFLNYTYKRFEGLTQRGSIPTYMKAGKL
Sequence of kinases in BCWM.1 cells (Homo sapiens, UniProt Q9NZJ5) (Q9NZJ5 30-1116 limits assumed): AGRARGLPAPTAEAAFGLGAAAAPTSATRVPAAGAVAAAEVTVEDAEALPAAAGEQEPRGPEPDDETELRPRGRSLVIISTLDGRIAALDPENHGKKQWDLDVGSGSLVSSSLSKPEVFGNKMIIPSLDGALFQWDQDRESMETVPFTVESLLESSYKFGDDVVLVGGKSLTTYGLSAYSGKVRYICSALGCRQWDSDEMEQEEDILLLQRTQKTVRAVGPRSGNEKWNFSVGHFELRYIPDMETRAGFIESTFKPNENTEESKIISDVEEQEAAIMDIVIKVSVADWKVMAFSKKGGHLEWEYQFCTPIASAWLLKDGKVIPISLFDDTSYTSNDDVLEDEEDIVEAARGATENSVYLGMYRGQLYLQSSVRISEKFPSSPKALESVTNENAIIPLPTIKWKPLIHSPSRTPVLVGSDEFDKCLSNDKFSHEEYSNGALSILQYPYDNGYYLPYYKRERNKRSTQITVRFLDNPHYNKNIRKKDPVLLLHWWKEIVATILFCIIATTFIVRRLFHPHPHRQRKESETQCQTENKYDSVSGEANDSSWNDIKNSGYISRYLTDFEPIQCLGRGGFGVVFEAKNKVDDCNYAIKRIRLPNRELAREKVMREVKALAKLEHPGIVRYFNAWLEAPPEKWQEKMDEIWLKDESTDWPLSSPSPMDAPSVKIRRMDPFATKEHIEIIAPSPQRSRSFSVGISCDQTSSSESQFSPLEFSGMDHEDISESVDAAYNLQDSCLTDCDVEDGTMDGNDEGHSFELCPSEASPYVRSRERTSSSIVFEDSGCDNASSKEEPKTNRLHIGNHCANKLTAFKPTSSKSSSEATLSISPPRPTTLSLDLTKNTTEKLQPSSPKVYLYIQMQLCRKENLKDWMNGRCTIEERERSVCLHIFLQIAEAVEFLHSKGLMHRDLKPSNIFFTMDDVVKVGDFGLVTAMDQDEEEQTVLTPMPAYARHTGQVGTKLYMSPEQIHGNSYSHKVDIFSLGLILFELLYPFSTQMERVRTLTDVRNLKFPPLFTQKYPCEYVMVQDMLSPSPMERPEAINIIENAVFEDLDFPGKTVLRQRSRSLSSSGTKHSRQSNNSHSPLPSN

SMILES	% change of MS signal compared to control sample (kinases in BCWM.1 cells [1]) [%]	% change of MS signal compared to control sample (kinases in BCWM.1 cells [2]; Lys2) [%]	% change of MS signal compared to control sample (kinases in BCWM.1 cells [2]; Protein Kinase Domain) [%]	% change of MS signal compared to control sample (kinases in BCWM.1 cells [3]) [%]	% change of MS signal compared to control sample (kinases in BCWM.1 cells [4]) [%]	% change of MS signal compared to control sample (kinases in BCWM.1 cells [5]) [%]	% change of MS signal compared to control sample (kinases in BCWM.1 cells [6]; RSK1 domain1) [%]	% change of MS signal compared to control sample (kinases in BCWM.1 cells [6]; RSK1 domain2) [%]	% change of MS signal compared to control sample (kinases in BCWM.1 cells [7]) [%]	% change of MS signal compared to control sample (kinases in BCWM.1 cells [8]) [%]	% change of MS signal compared to control sample (kinases in BCWM.1 cells [9]) [%]	% change of MS signal compared to control sample (kinases in BCWM.1 cells [10]) [%]	% change of MS signal compared to control sample (kinases in BCWM.1 cells [11]) [%]	% change of MS signal compared to control sample (kinases in BCWM.1 cells [12]) [%]	% change of MS signal compared to control sample (kinases in BCWM.1 cells [13]) [%]	% change of MS signal compared to control sample (kinases in BCWM.1 cells [14]) [%]	% change of MS signal compared to control sample (kinases in BCWM.1 cells [15]) [%]	% change of MS signal compared to control sample (kinases in BCWM.1 cells [16]) [%]	% change of MS signal compared to control sample (kinases in BCWM.1 cells [17]) [%]	% change of MS signal compared to control sample (kinases in BCWM.1 cells [18]) [%]	other results
C=CC(=O)N1CC[C@H](Nc2nccc(Nc3ncc(C(=O)Nc4c(C)cccc4C)s3)n2)C1 [Example I-3]	−31.2	43.5	32.6	−36.7	13.8	2.3	9	−1.9	−1.8	13	−12.8	46.4	>91	−15.6	−3.6	−77.2	−13.9	0.6	−14.1	−17	% change of MS signal compared to control sample (kinases in BCWM.1 cells [19]): −6.1%; % change of MS signal compared to control sample (kinases in BCWM.1 cells [20]): 5.7%; % change of MS signal compared to control sample (kinases in BCWM.1 cells [21]): 11.6%; % change of MS signal compared to control sample (kinases in BCWM.1 cells [22]): 2.4%; % change of MS signal compared to control sample (kinases in BCWM.1 cells [23]; RSK2 domain1): −2%; % change of MS signal compared to control sample (kinases in BCWM.1 cells [23]; RSK2 domain2): −10.2%; % change of MS signal compared to control sample (kinases in BCWM.1 cells [24]): 0.9%; % change of MS signal compared to control sample (kinases in BCWM.1 cells [25]): 7.4%; % change of MS signal compared to control sample (kinases in BCWM.1 cells [26]): 5.1%; % change of MS signal compared to control sample (kinases in BCWM.1 cells [27]): 15.4%; % change of MS signal compared to control sample (kinases in BCWM.1 cells [28]): −9.6%
CCC(=O)N1CC[C@H](Nc2nccc(Nc3ncc(C(=O)Nc4c(C)cccc4C)s3)n2)C1 [Example I-9]	12.5	−7.8	−2.9	24.3	2.7	−1.4	−2	−9.7	28.5	−6	22.1	28.6	97.4	23.4	−8	15.9	6.2	−11.6	−10.8	13.5	% change of MS signal compared to control sample (kinases in BCWM.1 cells [19]): 20.2%; % change of MS signal compared to control sample (kinases in BCWM.1 cells [20]): 11.3%; % change of MS signal compared to control sample (kinases in BCWM.1 cells [21]): −5.6%; % change of MS signal compared to control sample (kinases in BCWM.1 cells [22]): −23.4%; % change of MS signal compared to control sample (kinases in BCWM.1 cells [23]; RSK2 domain1): −5.6%; % change of MS signal compared to control sample (kinases in BCWM.1 cells [23]; RSK2 domain2): −9.7%; % change of MS signal compared to control sample (kinases in BCWM.1 cells [24]): −3.9%; % change of MS signal compared to control sample (kinases in BCWM.1 cells [25]): −3.7%; % change of MS signal compared to control sample (kinases in BCWM.1 cells [26]): −14.1%; % change of MS signal compared to control sample (kinases in BCWM.1 cells [27]): −21.3%; % change of MS signal compared to control sample (kinases in BCWM.1 cells [28]): −15.1%
